ChEMBL document CHEMBL1134206 (Bioorg Med Chem Lett, 2001)

Species on record: Rattus norvegicus
Experiment: Neuronal protective effect of compound against ischemic brain damage in rat t-MCAO model
Format: functional

| Compound | Inhibition [%] |
| --- | --- |
| Cc1c(N(C)C)c(=O)n(-c2ccccc2)n1C [AMINOPYRINE] | 21 |
| O=C1c2ccccc2OC=C(Cl)N1CCCCN1CC=C(c2ccccn2)CC1 [PICLOZOTAN] | 63 |

The compounds below were run against T1, 5-hydroxytryptamine receptor 1A (Rattus norvegicus, UniProt P19327) (assay: Binding affinity to 5-hydroxytryptamine 1A receptor of rat hippocampus with [3H]8-OH-DPAT as radioligand).
T1 sequence (P19327 whole entry): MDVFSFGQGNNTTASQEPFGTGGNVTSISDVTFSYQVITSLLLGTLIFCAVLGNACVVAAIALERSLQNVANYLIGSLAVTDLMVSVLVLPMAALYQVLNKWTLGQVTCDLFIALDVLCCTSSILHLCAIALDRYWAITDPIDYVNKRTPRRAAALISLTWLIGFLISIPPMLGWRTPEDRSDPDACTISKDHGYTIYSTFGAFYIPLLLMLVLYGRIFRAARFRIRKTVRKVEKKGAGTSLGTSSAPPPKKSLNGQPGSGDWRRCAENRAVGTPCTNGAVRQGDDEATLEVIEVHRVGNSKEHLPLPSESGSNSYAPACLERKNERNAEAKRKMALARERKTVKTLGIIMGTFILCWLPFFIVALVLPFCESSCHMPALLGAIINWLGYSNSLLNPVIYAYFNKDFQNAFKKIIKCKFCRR
Format: tissue-based

| IC50 [µM] | Compound |
| --- | --- |
| 0.00159 | O=C1c2ccccc2OC=C(Cl)N1CCCCN1CCN(c2ncccn2)CC1 |
| 0.018 | O=C1c2ccccc2OC=CN1CCCCN1CCN(c2ncccn2)CC1 |
| 0.0102 | CC1=COc2ccccc2C(=O)N1CCCCN1CCN(c2ncccn2)CC1 |

What follows are compounds tested against D(2) dopamine receptor (Rattus norvegicus, UniProt P61169) (assay: Binding affinity to Dopamine receptor D2 in of rat striatum membrane with [3H]- raclopride as radioligand).
Chain of D(2) dopamine receptor (P61169 whole entry): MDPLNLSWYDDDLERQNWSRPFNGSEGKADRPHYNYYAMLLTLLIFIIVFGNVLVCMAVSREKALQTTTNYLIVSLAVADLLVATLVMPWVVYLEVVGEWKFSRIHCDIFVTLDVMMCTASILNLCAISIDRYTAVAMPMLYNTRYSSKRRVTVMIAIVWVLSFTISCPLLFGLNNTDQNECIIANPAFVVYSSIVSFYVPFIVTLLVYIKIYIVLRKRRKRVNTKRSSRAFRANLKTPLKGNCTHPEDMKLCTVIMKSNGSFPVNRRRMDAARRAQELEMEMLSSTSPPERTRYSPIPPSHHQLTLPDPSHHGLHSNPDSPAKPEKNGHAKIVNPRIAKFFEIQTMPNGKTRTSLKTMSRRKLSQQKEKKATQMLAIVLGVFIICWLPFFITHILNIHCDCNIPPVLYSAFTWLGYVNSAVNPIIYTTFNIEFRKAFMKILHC
Format: cell membranes

| IC50 [µM] | Compound |
| --- | --- |
| 0.199 | O=C1c2ccccc2OC=C(Cl)N1CCCCN1CCN(c2ncccn2)CC1 |
| 1.1 | CC1=COc2ccccc2C(=O)N1CCCCN1CCN(c2ncccn2)CC1 |

| Compound | IC50 [µM] |
| --- | --- |
| O=C1c2ccccc2OC=C(Cl)N1CCCCN1CC=C(c2ccccn2)CC1 [PICLOZOTAN] | 0.084 |

The compounds below were run against T2, 5-hydroxytryptamine receptor 1A (Rattus norvegicus) (UniProt P19327) (assay: Ratio of binding affinity to 5-HT 1A and D2 receptor).
T2 sequence (whole entry): T1 sequence (P19327 whole entry)

| Ratio | Compound |
| --- | --- |
| 125 | O=C1c2ccccc2OC=C(Cl)N1CCCCN1CCN(c2ncccn2)CC1 |
| 66 | O=C1c2ccccc2OC=C(Cl)N1CCCCN1CCN(c2ccccn2)CC1 |
| 108 | CC1=COc2ccccc2C(=O)N1CCCCN1CCN(c2ncccn2)CC1 |

| Compound | Ratio |
| --- | --- |
| O=C1c2ccccc2OC=C(Cl)N1CCCCN1CC=C(c2ccccn2)CC1 [PICLOZOTAN] | 179 |
